Laboratory results from patent US20080033020A1, “3-Pyridinylethylbenzamide Derivatives as Fungicides” (priority 2004, published 2008).

Legend:
[1] = test system: Alternaria brassicae; assay: In vivo test on Alternaria brassicae (leaf spot of crucifers) on radish plants; conditions: at 330 ppm; comparative compounds of WO 01/11965
Procedure: The active ingredient tested is prepared by potter homogenisation in a concentrated suspension type formulation at 100 g/l. This suspension is then diluted with water to obtain the desired active material concentration.
Radish plants (Pernot variety) in starter cups, sown on a 50/50 peat soil-pozzolana substrate and grown at 18-20° C., are treated at the cotyledon stage by spraying with the aqueous suspension described above.
Plants, used as controls, are treated with an aqueous solution not containing the active material.
After 24 hours, the plants are contaminated by spraying them with an aqueous suspension of Alternaria brassicae spores (40,000 spores per cm^3). The spores are collected from a 12 to 13 days-old culture.
The contaminated radish plants are incubated for 6-7 days at about 18° C., under a humid atmosphere.
Grading is carried out 6 to 7 days after the contamination, in comparison with the control plants.
Under these conditions, good (at least 50%) or total protection is observed at a dose of 330 ppm or 110 ppm with the following compounds: 1, 2, 3, 4, 5, 6, 7, 8, 9, 10 and 11.

[2] = test system: Botrytis cinerea; assay: Effectiveness on Botrytis cinerea (comparative compounds); type: in vivo; conditions: at 330 ppm; comparative compounds of WO 01/11965
[3] = test system: Peronospora parasitica; assay: Efficacy against Peronospora parasitica (comparative compound); type: in vivo; conditions: at 330 ppm; comparative compound of WO 01/11965

Row | Compound | effectiveness on Alternaria brassicae [1] | effectiveness on Botrytis cinerea [2] | efficacy against Peronospora parasitica [3]
1 | O=C(Cc1cccs1)NCc1ncc(C(F)(F)F)cc1Cl [compound 101, N-{[3-chloro-5-(trifluoromethyl)-2-pyridinyl]methyl}-5-thienylacetamide] | poor efficacy | no efficacy | no efficacy
2 | CCNC(=O)C(Cc1ncc(C(F)(F)F)cc1Cl)NC(=O)c1ccccc1 (stereo not drawn) [compound 304, N-{1-ethylcarbamoyl-2-[3-chloro-5-(trifluoromethyl)-2-pyridinyl]-ethyl}-benzamide] | – | zero effectiveness | –
3 | CCNC(=O)C(Cc1ncc(C(F)(F)F)cc1Cl)NC(=O)c1ccc(Cl)cc1 (stereo not drawn) [compound 306, N-{1-ethylcarbamoyl-2-[3-chloro-5-(trifluoromethyl)-2-pyridinyl]ethyl}-4-chlorobenzamide] | – | zero effectiveness | –
4 | CCNC(=O)C(Cc1ncc(C(F)(F)F)cc1Cl)NC(=O)c1cccc([N+](=O)[O-])c1 (stereo not drawn) [compound 307, N-{1-ethylcarbamoyl-2-[3-chloro-5-(trifluoromethyl)-2-pyridinyl]ethyl}-3-nitrobenzamide] | poor effectiveness | zero effectiveness | –
5 | CCNC(=O)C(Cc1ncc(C(F)(F)F)cc1Cl)NC(=O)c1ccccc1Br (stereo not drawn) [compound 310, N-{1-ethylcarbamoyl-2-[3-chloro-5-(trifluoromethyl)-2-pyridinyl]ethyl}-2-bromobenzamide] | – | zero effectiveness | –
6 | CNC(=O)C(Cc1ncc(C(F)(F)F)cc1Cl)NC(=O)c1ccccc1 (stereo not drawn) [compound 314, N-{1-methylcarbamoyl-2-[3-chloro-5-(trifluoromethyl)-2-pyridinyl]ethyl}-benzamide] | – | zero effectiveness | –
7 | CNC(=O)C(Cc1ncc(C(F)(F)F)cc1Cl)NC(=O)c1ccc(OC)cc1 (stereo not drawn) [compound 315, N-{1-methylcarbamoyl-2-[3-chloro-5-(trifluoromethyl)-2-pyridinyl]ethyl}-4-methoxybenzamide] | – | zero effectiveness | –
8 | CNC(=O)C(Cc1ncc(C(F)(F)F)cc1Cl)NC(=O)c1ccc(-c2ccccc2)cc1 (stereo not drawn) [compound 316, N-{1-methylcarbamoyl-2-[3-chloro-5-(trifluoromethyl)-2-pyridinyl]-ethyl}-4-phenylbenzamide] | poor effectiveness | zero effectiveness | –
